Laboratory results from US20200113181A1, “HERBICIDAL COMPOUNDS” (SYNGENTA PARTICIPATIONS AG, priority 2016, published 2020).

Tests used:
Assay type in all cases: in vivo
[1] = test system: Avena fatua (AVEFA); assay: Glasshouse herbicide test, pre- and post-emergence, Avena fatua; conditions: 250 g/h, evaluated after 13 days; for AVEFA POST, percentage damage caused to the plant (five point scale): post-emergence; for AVEFA PRE, percentage damage caused to the plant (five point scale): pre-emergence
Procedure: (§1) Seeds of a variety of test species are sown in standard soil in pots (Lolium perenne (LOLPE), Setaria faberi (SETFA), Alopecurus myosuroides (ALOMY), Echinochloa crus-galli (ECHCG), Avena fatua (AVEFA)). After cultivation for one day (pre-emergence) or after 8 days cultivation (post-emergence) under controlled conditions in a glasshouse (at 24/16° C., day/night; 14 hours light; 65% humidity), the plants are sprayed with an aqueous spray solution derived from the formulation of the technical active ingredient in acetone/water (50:50) solution containing 0.5% Tween 20 (polyoxyethelyene sorbitan monolaurate, CAS RN 9005-64-5). Compounds are applied at […]. The test plants are then grown in a glasshouse under controlled conditions in a glasshouse (at 24/16° C., day/night; 14 hours light; 65% humidity) and watered twice daily. After 13 days for pre and post-emergence, the test is evaluated for the percentage damage caused to the plant. The biological activities are shown in the following table on a five point scale (5=80-100%; 4=60-79%; 3=40-59%; 2=20-39%; 1=0-19%).

[2] = test system: Echinochloa crus-galli (ECHCG); assay: Glasshouse herbicide test, pre- and post-emergence, Echinochloa crus-galli; conditions: 250 g/h, evaluated after 13 days; for ECHCG POST, percentage damage caused to the plant (five point scale): post-emergence; for ECHCG PRE, percentage damage caused to the plant (five point scale): pre-emergence
Procedure: as §1

[3] = test system: Lolium perenne (LOLPE); assay: Glasshouse herbicide test, pre- and post-emergence, Lolium perenne; conditions: 250 g/h, evaluated after 13 days; for LOLPE POST, percentage damage caused to the plant (five point scale): post-emergence; for LOLPE PRE, percentage damage caused to the plant (five point scale): pre-emergence
Procedure: as §1

[4] = test system: Setaria faberi (SETFA); assay: Glasshouse herbicide test, pre- and post-emergence, Setaria faberi; conditions: 250 g/h, evaluated after 13 days; for SETFA POST, percentage damage caused to the plant (five point scale): post-emergence; for SETFA PRE, percentage damage caused to the plant (five point scale): pre-emergence
Procedure: as §1

[5] = test system: Alopecurus myosuroides (ALOMY); assay: Glasshouse herbicide test, pre- and post-emergence, Alopecurus myosuroides; conditions: 250 g/h, evaluated after 13 days; for ALOMY POST, percentage damage caused to the plant (five point scale): post-emergence; for ALOMY PRE, percentage damage caused to the plant (five point scale): pre-emergence
Procedure: as §1

Row | Compound | AVEFA POST, percentage damage caused to the plant (five point scale) [1] | AVEFA PRE, percentage damage caused to the plant (five point scale) [1] | ECHCG POST, percentage damage caused to the plant (five point scale) [2] | ECHCG PRE, percentage damage caused to the plant (five point scale) [2] | LOLPE POST, percentage damage caused to the plant (five point scale) [3] | LOLPE PRE, percentage damage caused to the plant (five point scale) [3] | SETFA POST, percentage damage caused to the plant (five point scale) [4] | SETFA PRE, percentage damage caused to the plant (five point scale) [4] | ALOMY POST, percentage damage caused to the plant (five point scale) [5] | ALOMY PRE, percentage damage caused to the plant (five point scale) [5]
1 | CC#Cc1ccc(C2=C(OC(=O)C(C)C)[C@@H]3[C@H](C2=O)[C@H]2CC[C@@H]3O2)c(OC)c1 (racemic) [Compound 1.1, isobutyric acid 4-(2-methoxy-4-prop-1-ynyl-phenyl)-5-oxo-10-oxa-tricyclo[5.2.1.0^2,6]dec-3-en-3-yl ester] | 5 (5=80-100%) | 5 (5=80-100%) | 5 (5=80-100%) | 5 (5=80-100%) | 5 (5=80-100%) | 5 (5=80-100%) | 5 (5=80-100%) | 5 (5=80-100%) | – | –
2 | CC#Cc1ccc(C2C(=O)[C@@H]3[C@@H]4O[C@@H](C[C@@H]4C)[C@@H]3C2=O)c(OC)c1 (mixture of isomers) [Compound 1.3] | 5 (5=80-100%) | 5 (5=80-100%) | 5 (5=80-100%) | 5 (5=80-100%) | 5 (5=80-100%) | 5 (5=80-100%) | 5 (5=80-100%) | 5 (5=80-100%) | 5 (5=80-100%) | 5 (5=80-100%)
3 | CC#Cc1ccc(C2C(=O)[C@H]3[C@@H]4CC[C@@](C)(O4)[C@H]3C2=O)c(OC)c1 (mixture of isomers) [Compound 1.5] | 5 (5=80-100%) | 5 (5=80-100%) | 5 (5=80-100%) | 5 (5=80-100%) | 5 (5=80-100%) | 5 (5=80-100%) | 5 (5=80-100%) | 5 (5=80-100%) | 5 (5=80-100%) | 5 (5=80-100%)
4 | CC#Cc1ccc(C2C(=O)[C@H]3[C@@H]4C=C[C@@](C)(O4)[C@H]3C2=O)c(OC)c1 (mixture of isomers) [Compound 1.6] | 5 (5=80-100%) | 3 (3=40-59%) | 5 (5=80-100%) | 5 (5=80-100%) | 5 (5=80-100%) | 5 (5=80-100%) | 5 (5=80-100%) | 5 (5=80-100%) | 2 (2=20-39%) | 5 (5=80-100%)
